Source: PMC9158266, “Ethacrynic acid is an inhibitor of human factor XIIIa” (BMC Pharmacology & Toxicology, 2022)

Biological target: T1, human factor XIIIa (FXIIIa) (Homo sapiens, UniProt P00488)
T1 construct: gene F13A1
T1 sequence (P00488 39-732): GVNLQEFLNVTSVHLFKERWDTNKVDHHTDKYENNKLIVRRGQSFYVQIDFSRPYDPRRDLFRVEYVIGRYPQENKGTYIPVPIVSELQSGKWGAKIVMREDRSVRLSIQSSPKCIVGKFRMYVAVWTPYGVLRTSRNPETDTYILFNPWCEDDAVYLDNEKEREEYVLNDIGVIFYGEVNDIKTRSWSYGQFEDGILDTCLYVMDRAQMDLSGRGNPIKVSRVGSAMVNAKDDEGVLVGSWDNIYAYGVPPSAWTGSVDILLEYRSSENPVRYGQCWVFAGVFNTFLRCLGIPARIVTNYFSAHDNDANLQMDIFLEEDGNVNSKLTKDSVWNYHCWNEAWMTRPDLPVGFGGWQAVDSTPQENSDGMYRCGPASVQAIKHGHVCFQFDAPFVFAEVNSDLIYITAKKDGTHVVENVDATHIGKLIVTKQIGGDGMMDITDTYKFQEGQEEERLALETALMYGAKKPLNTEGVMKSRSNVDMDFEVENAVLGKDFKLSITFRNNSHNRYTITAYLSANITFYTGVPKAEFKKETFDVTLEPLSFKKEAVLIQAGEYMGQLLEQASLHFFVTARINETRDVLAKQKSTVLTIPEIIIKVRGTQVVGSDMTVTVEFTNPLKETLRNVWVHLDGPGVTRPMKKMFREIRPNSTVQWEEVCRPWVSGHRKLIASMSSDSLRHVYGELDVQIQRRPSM
Experiment: bisubstrate fluorescence trans-glutamination assay (dansylcadaverine / N,N-dimethylcasein)
Assay type: biochemical

C=C(CC)C(=O)c1ccc(OCC(=O)O)c(Cl)c1Cl [compound 1, Ethacrynic acid]
IC50: 106 ± 32.5 µM
